Molecules are shown by their SMILES.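 48-hour exposure; five concentrations; linearly interpolated endpoints. At the GI50, growth is halved.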 Calls of active or inactive are those of the source. No stated cut-off is given here; in the data, active = GI50 up to about 1.1 µM and inactive = higher.

Some test systems named below: HCT-15; M14; SK-MEL-2; RXF 393; IGROV-1; KM12; CAKI-1; HT-29; MDA-MB-231; NCI/ADR-RES; COLO 205; HL-60; SF-295; SK-MEL-5; SF-268; CCRF-CEM; MDA-N; Malme-3M; SW-620; MOLT-4.
Experiment in all cases: NCI anticancer screen, dose series, 48 h

Regarding `O=[N+]([O-])c1cc(Cl)ccc1S(=O)(=O)c1cc(Cl)cc2c1NCCC2`, the GI50 was 60.7 µM with HCT-15; 53 µM (inactive) in the experiment on M14; > 100 µM (inactive) in the experiment with SK-MEL-2; 41.4 µM (inactive) in the experiment on RXF 393; 29.1 µM (inactive) in the experiment with IGROV-1; 52.7 µM (inactive) in the experiment with KM12. Further, the GI50 with CAKI-1 is 66.7 µM (inactive); in the experiment on HT-29 it was 45.6 µM (inactive); in the experiment with MDA-MB-231, > 100 µM (inactive); with NCI/ADR-RES, 71.4 µM (inactive); in the experiment with COLO 205 it was 99.8 µM (inactive); in the experiment on HL-60, 98.4 µM (inactive). The GI50 was 36.7 µM (inactive) in the experiment with SF-295; 21.3 µM (inactive) in the experiment with SK-MEL-5; 82.4 µM (inactive) in the experiment with SF-268; 26.4 µM (inactive) in the experiment on CCRF-CEM; 39.3 µM (inactive) in the experiment with MDA-N; > 100 µM (inactive) in the experiment on Malme-3M. In addition, the GI50 was > 100 µM (inactive) with SW-620 and 27.6 µM (inactive) with MOLT-4.

For the origin of these results see ChEMBL document CHEMBL1201862, “PubChem BioAssay data set” (2004).
